Results published in ChEMBL document CHEMBL1201862, “PubChem BioAssay data set” (2004).
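Tested at 5 concentrations; 48 h exposure; 96-well plates; endpoints linearly interpolated, else capped at highest concentration. Here, GI50 denotes the concentration required for 50% inhibition of growth.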 The source made the active and inactive calls. Cut-off read from the data, not from the text of the source: active = GI50 up to about 1.1 µM and inactive = higher.

Assays:
Experiment in all cases: DTP human tumour cell line panel, 48 h
[1] = test system: 786-0
[2] = test system: A498
[3] = test system: DU-145
[4] = test system: HCT-116
[5] = test system: HT-29
[6] = test system: KM12
[7] = test system: M14
[8] = test system: OVCAR-3
[9] = test system: PC-3
[10] = test system: SF-539
[11] = test system: SK-MEL-28
[12] = test system: SK-MEL-2
[13] = test system: SN12C
[14] = test system: SNB-19
[15] = test system: T47D
[16] = test system: TK-10
[17] = test system: UACC-257
[18] = test system: UACC-62
[19] = test system: MDA-N

Row | Structure (SMILES) | GI50 [1] | GI50 [2] | GI50 [3] | GI50 [4] | GI50 [5] | GI50 [6] | GI50 [7] | GI50 [8] | GI50 [9] | GI50 [10] | GI50 [11] | GI50 [12] | GI50 [13] | GI50 [14] | GI50 [15] | GI50 [16] | GI50 [17] | GI50 [18] | GI50 [19]
1 | Cc1oc2nc(N(C)C)n3cnnc3c2c1C | > 100 µM (inactive) | > 100 µM (inactive) | > 100 µM (inactive) | > 100 µM (inactive) | > 100 µM (inactive) | > 100 µM (inactive) | > 100 µM (inactive) | > 100 µM (inactive) | > 100 µM (inactive) | > 100 µM (inactive) | > 100 µM (inactive) | > 100 µM (inactive) | > 100 µM (inactive) | > 100 µM (inactive) | > 100 µM (inactive) | > 100 µM (inactive) | > 100 µM (inactive) | > 100 µM (inactive) | –
2 | N=NCC(=O)OC(COCc1ccccc1)COCc1ccccc1 | > 100 µM (inactive) | > 100 µM (inactive) | 36.3 µM (inactive) | > 100 µM (inactive) | > 100 µM (inactive) | 31.4 µM (inactive) | – | > 100 µM (inactive) | 70 µM (inactive) | – | > 100 µM (inactive) | > 100 µM (inactive) | 80.5 µM (inactive) | > 100 µM (inactive) | – | > 100 µM (inactive) | > 100 µM (inactive) | > 100 µM (inactive) | –
3 | NS(=O)(=O)c1nnc(NC(=O)c2cccc([N+](=O)[O-])c2)s1 | > 100 µM (inactive) | – | > 100 µM (inactive) | > 100 µM (inactive) | – | > 100 µM (inactive) | > 100 µM (inactive) | > 100 µM (inactive) | – | > 100 µM (inactive) | > 100 µM (inactive) | > 100 µM (inactive) | > 100 µM (inactive) | > 100 µM (inactive) | > 100 µM (inactive) | > 100 µM (inactive) | > 100 µM (inactive) | > 100 µM (inactive) | > 100 µM (inactive)
4 | O=C(CNc1ccccc1[N+](=O)[O-])Nn1cnc2ccc(S(=O)(=O)Nc3ccccc3[N+](=O)[O-])cc2c1=O | > 100 µM (inactive) | – | > 100 µM (inactive) | > 100 µM (inactive) | > 100 µM (inactive) | > 100 µM (inactive) | > 100 µM (inactive) | > 100 µM (inactive) | > 100 µM (inactive) | > 100 µM (inactive) | > 100 µM (inactive) | > 100 µM (inactive) | > 100 µM (inactive) | > 100 µM (inactive) | – | > 100 µM (inactive) | > 100 µM (inactive) | > 100 µM (inactive) | > 100 µM (inactive)
5 | NC(=O)NNc1nc(-c2ccccc2)cs1 | > 100 µM (inactive) | > 100 µM (inactive) | > 100 µM (inactive) | > 100 µM (inactive) | > 100 µM (inactive) | > 100 µM (inactive) | > 100 µM (inactive) | > 100 µM (inactive) | > 100 µM (inactive) | – | > 100 µM (inactive) | > 100 µM (inactive) | > 100 µM (inactive) | > 100 µM (inactive) | > 100 µM (inactive) | > 100 µM (inactive) | > 100 µM (inactive) | > 100 µM (inactive) | –
6 | COc1cc2nc(-c3cccs3)nc(N3C(c4cc(OC)c(OC)c(OC)c4)=NNC(=O)c4ccccc43)c2cc1OC | 35.6 µM (inactive) | > 100 µM (inactive) | 29 µM (inactive) | > 100 µM (inactive) | 23.3 µM (inactive) | 18.5 µM (inactive) | 15.3 µM (inactive) | 6.43 µM (inactive) | 29.6 µM (inactive) | 21.8 µM (inactive) | 21.9 µM (inactive) | 76 µM (inactive) | 21.2 µM (inactive) | 16.4 µM (inactive) | 39 µM (inactive) | 22.8 µM (inactive) | 35.3 µM (inactive) | 17.4 µM (inactive) | –
7 | CC(=O)/C(=C/N1C(=O)CC(=O)NC1=S)C(=O)Nc1ccccc1C | 21.7 µM (inactive) | 28.1 µM (inactive) | 97.3 µM (inactive) | 31.6 µM (inactive) | 23.5 µM (inactive) | 37.5 µM (inactive) | 76 µM (inactive) | 36.1 µM (inactive) | – | 32.3 µM (inactive) | 58.6 µM (inactive) | > 100 µM (inactive) | > 100 µM (inactive) | > 100 µM (inactive) | 81.3 µM (inactive) | > 100 µM (inactive) | 80.5 µM (inactive) | 24.3 µM (inactive) | 49.2 µM (inactive)
8 | Cc1ccc(S(=O)(=O)Nn2c(O)c(C#N)c(-c3ccc([N+](=O)[O-])cc3)c(C#N)c2=O)cc1 | > 100 µM (inactive) | > 100 µM (inactive) | – | > 100 µM (inactive) | > 100 µM (inactive) | > 100 µM (inactive) | > 100 µM (inactive) | – | > 100 µM (inactive) | > 100 µM (inactive) | > 100 µM (inactive) | > 100 µM (inactive) | > 100 µM (inactive) | > 100 µM (inactive) | – | > 100 µM (inactive) | > 100 µM (inactive) | > 100 µM (inactive) | > 100 µM (inactive)
9 | CCC1(C)NN=c2s/c(=C/c3ccc(OC)cc3)c(=O)n2N1 (stereo not given) | > 100 µM (inactive) | – | – | > 100 µM (inactive) | > 100 µM (inactive) | > 100 µM (inactive) | > 100 µM (inactive) | 80.4 µM (inactive) | – | 90.6 µM (inactive) | > 100 µM (inactive) | > 100 µM (inactive) | > 100 µM (inactive) | > 100 µM (inactive) | – | > 100 µM (inactive) | – | > 100 µM (inactive) | –
10 | O=C(Nc1ccc(C(F)(F)F)cc1)NC(F)(F)F | > 100 µM (inactive) | > 100 µM (inactive) | – | > 100 µM (inactive) | > 100 µM (inactive) | – | > 100 µM (inactive) | – | > 100 µM (inactive) | > 100 µM (inactive) | > 100 µM (inactive) | > 100 µM (inactive) | > 100 µM (inactive) | > 100 µM (inactive) | > 100 µM (inactive) | 35.9 µM (inactive) | > 100 µM (inactive) | – | > 100 µM (inactive)
11 | COc1ccc2nc3cc(Cl)ccc3c(NCCCN(Cc3cc(OC)c(OC)c(OC)c3)Cc3cc(OC)c(OC)c(OC)c3)c2c1 | 12.1 µM (inactive) | – | 12.8 µM (inactive) | 0.174 µM (active) | 2.31 µM (inactive) | 13.8 µM (inactive) | 1.78 µM (inactive) | 19 µM (inactive) | 10.4 µM (inactive) | 2.2 µM (inactive) | 16.4 µM (inactive) | 25.1 µM (inactive) | 16.8 µM (inactive) | 17.4 µM (inactive) | 23 µM (inactive) | 23.1 µM (inactive) | 13.9 µM (inactive) | 18.4 µM (inactive) | –
12 | CCCCCCCCCCCCN(O)C(=O)c1ccccc1 | 16.9 µM (inactive) | 18.8 µM (inactive) | – | 42 µM (inactive) | 39.4 µM (inactive) | 38 µM (inactive) | 21.2 µM (inactive) | > 100 µM (inactive) | – | 20.6 µM (inactive) | 36.8 µM (inactive) | 47 µM (inactive) | 17.1 µM (inactive) | 42.6 µM (inactive) | – | 46.5 µM (inactive) | 18.8 µM (inactive) | 19.7 µM (inactive) | –
13 | Cc1ncc2c(=O)c3c(oc2n1)c1ccccc1n3Cc1ccccc1 | 84.9 µM (inactive) | – | > 100 µM (inactive) | > 100 µM (inactive) | > 100 µM (inactive) | > 100 µM (inactive) | – | > 100 µM (inactive) | > 100 µM (inactive) | > 100 µM (inactive) | > 100 µM (inactive) | – | > 100 µM (inactive) | > 100 µM (inactive) | 7.24 µM (inactive) | > 100 µM (inactive) | > 100 µM (inactive) | 27 µM (inactive) | > 100 µM (inactive)
14 | COc1c(C(C)C)cc2c3c1OC(=O)[C@@]31CCCC(C)(C)C1CC2 (stereo not given in full) | 46.7 µM (inactive) | – | – | 9.2 µM (inactive) | 25.5 µM (inactive) | – | 33.5 µM (inactive) | 20.5 µM (inactive) | – | 14 µM (inactive) | 27.4 µM (inactive) | 28.1 µM (inactive) | 51.9 µM (inactive) | 5.78 µM (inactive) | – | 25.2 µM (inactive) | 20.3 µM (inactive) | 24.4 µM (inactive) | –
15 | O=C1C2CC=CCC2C(=O)N1n1c(Cc2ccccc2)n[nH]c1=O (stereo not given) | > 100 µM (inactive) | > 100 µM (inactive) | – | > 100 µM (inactive) | > 100 µM (inactive) | > 100 µM (inactive) | > 100 µM (inactive) | > 100 µM (inactive) | > 100 µM (inactive) | > 100 µM (inactive) | – | > 100 µM (inactive) | > 100 µM (inactive) | > 100 µM (inactive) | > 100 µM (inactive) | > 100 µM (inactive) | > 100 µM (inactive) | > 100 µM (inactive) | > 100 µM (inactive)
16 | N#C/C(=C/NC(=S)c1ccncc1)C(N)=O | > 100 µM (inactive) | > 100 µM (inactive) | > 100 µM (inactive) | > 100 µM (inactive) | > 100 µM (inactive) | > 100 µM (inactive) | > 100 µM (inactive) | > 100 µM (inactive) | – | > 100 µM (inactive) | > 100 µM (inactive) | > 100 µM (inactive) | > 100 µM (inactive) | > 100 µM (inactive) | > 100 µM (inactive) | > 100 µM (inactive) | > 100 µM (inactive) | > 100 µM (inactive) | > 100 µM (inactive)
17 | CSC1=N/C(=C\c2ccccc2)C(=O)N1CN1CCCCC1 | 42.2 µM (inactive) | 77.8 µM (inactive) | > 100 µM (inactive) | 33.2 µM (inactive) | 22.5 µM (inactive) | 65 µM (inactive) | 61.7 µM (inactive) | > 100 µM (inactive) | 55.5 µM (inactive) | – | > 100 µM (inactive) | > 100 µM (inactive) | > 100 µM (inactive) | 46.1 µM (inactive) | – | 99.3 µM (inactive) | – | 58.3 µM (inactive) | 88.3 µM (inactive)
